Reference: patent US11491245B2, “Gadolinium chelate compounds for use in magnetic resonance imaging” (BAYER PHARMA AKTIENGESELLSCHAFT, priority 2015, dated 2022)
“Also recorded” adds a separate entry of the source.

Assay: Whole body imaging (dynamic MRI and tissue Gd concentration)
Type: in vivo, male New Zealand white rabbits
Settings: rabbits
Method: The study was performed with a clinical whole body MRI equipped with body spine coil, abdomen flex coil, neck coil (1.5 T Magnetom Avanto, Siemens Healthcare, Erlangen, Germany). The study was done using male New Zealand white rabbits (weight 2.3-3.0 kg, n=8, Charles River Kisslegg). All animals were initially anesthetized using a body weight-adjusted intramuscular injection of a mixture (1+2) of xylazine hydrochloride (20 mg/mL, Rompun 2%, Bayer Vital GmbH, Leverkusen, Germany) and ketamine hydrochloride (100 mg/mL, Ketavet, Pfizer, Pharmacia GmbH, Berlin, Germany) using 1 mL/kg body weight. The continuous anesthesia of the intubated animals (endotracheal tube, Rueschelit Super Safe Clear, cuff 3.0 mm, Willy Ruesch AG, Kernen, Germany) was achieved by the intravenous injection of 0.9 mg propofol per kilogram per hour (10 mg/mL, Propofol-Lipuro 1%, B. Braun Melsungen AG, Melsungen, Germany). The continuous intravenous injection was performed using a MR infusion system (Continuum MR Infusion System, Medrad Europe B. V., A E Beek, Germany). The tracheal respiration (SV 900C, Maquet, Rastatt, Germany) was performed with 55% oxygen, forty breaths per minute and a breathing volume of 7 mL per kilogram body weight per minute.
Dynamic MRI measurements up to 22 min post injection with subsequent quantitative signal analysis (Siemens Mean Curve software (SYNGO Task Card, Siemens Healthcare, Erlangen, Germany), were performed for three different regions head and neck (brain, tongue, chops muscle, neck muscle), abdomen (spleen, liver, blood) and pelvis (extremity muscle). For the three different slice groups a 3D T1-weighted Vibe sequence was used (TR=4.74 ms, TE=2.38, flip=10°, 1:29 min). The dynamic measurements of the three slice groups (Head/Neck: 1:29 min, Abdomen: 0:49 min, Pelvis: 1:16 min) were done up to 22 min post injection: 1. Head/Neck: baseline, 1.4, 5.2, 8.9, 12.8, 16.5, 20.4 min, 2. Abdomen: baseline, 0.5, 4.3, 8.1, 11.9, 15.7, 19.5 min and 3. Pelvis: baseline, 2.9, 6.7, 10.5, 14.4, 18.1, 22.0 min. At 30 min post injection the animals were sacrificed and the Gd concentrations were measured using Inductively Coupled Plasma Mass Spectroscopy (ICP-MS Agilent 7500a, Waldbronn, Germany) in the following tissue samples: blood, brain, tongue, liver and extremity muscle. A quantitative image evaluation was performed for the 30 min time point p.i. due to the combination of the quantitative ICP-MS Gadolinium concentrations and the MRI region-of-interest analysis.

CC(C(=O)NCC(=O)NCC(CNC(=O)CNC(=O)C(C)N1CCN(CC(=O)[O-])CCN(CC(=O)[O-])CCN(CC(=O)[O-])CC1)(CNC(=O)CNC(=O)C(C)N1CCN(CC(=O)[O-])CCN(CC(=O)[O-])CCN(CC(=O)[O-])CC1)CNC(=O)CNC(=O)C(C)N1CCN(CC(=O)[O-])CCN(CC(=O)[O-])CCN(CC(=O)[O-])CC1)N1CCN(CC(=O)[O-])CCN(CC(=O)[O-])CCN(CC(=O)[O-])CC1.[Gd+3].[Gd+3].[Gd+3].[Gd+3] (stereo not drawn) [Example 3, Tetragadolinium [4,10-bis(carboxylatomethyl)-7-{3,6,12,15-tetraoxo-16-[4,7,10-tris-(carboxylatomethyl)-1,4,7,10-tetraazacyclododecan-1-yl]-9,9-bis({[({2-[4,7,10-tris-(carboxylatomethyl)-1,4,7,10-tetraazacyclododecan-1-yl]propanoyl}amino)acetyl]-amino}methyl)-4,7,11,14-tetraazaheptadecan-2-yl}-1,4,7,10-tetraazacyclododecan-1-yl]acetate]
slope of the linear regression between tissue gadolinium concentration and MRI signal change (tissues 30 min p.i., FIGS. 8A and 8B): 1.9 | time course of contrast enhancements / signal changes (various tissues, up to 22 min post injection, vs Reference compound 1, FIG. 7): No differences in the time course of signal changes were observed; also recorded: no differences in the time course of contrast enhancements were observed | contrast enhancement (amplitude) (various tissues, vs Reference compound 1, FIG. 7): higher compared to that of Reference compound 1
